Laboratory results reported in ChEMBL document CHEMBL4425137, “Selective 5-HT2C receptor agonists: Design and synthesis of pyridazine-fused azepines” (Bioorg Med Chem Lett, 2016).

Assays:
[1] = human, microsomes
Description: (§1) Intrinsic clearance in human liver microsomes

[2] = target: T1, 5-hydroxytryptamine receptor 2C (Homo sapiens, UniProt P28335)
T1 sequence (P28335 whole entry): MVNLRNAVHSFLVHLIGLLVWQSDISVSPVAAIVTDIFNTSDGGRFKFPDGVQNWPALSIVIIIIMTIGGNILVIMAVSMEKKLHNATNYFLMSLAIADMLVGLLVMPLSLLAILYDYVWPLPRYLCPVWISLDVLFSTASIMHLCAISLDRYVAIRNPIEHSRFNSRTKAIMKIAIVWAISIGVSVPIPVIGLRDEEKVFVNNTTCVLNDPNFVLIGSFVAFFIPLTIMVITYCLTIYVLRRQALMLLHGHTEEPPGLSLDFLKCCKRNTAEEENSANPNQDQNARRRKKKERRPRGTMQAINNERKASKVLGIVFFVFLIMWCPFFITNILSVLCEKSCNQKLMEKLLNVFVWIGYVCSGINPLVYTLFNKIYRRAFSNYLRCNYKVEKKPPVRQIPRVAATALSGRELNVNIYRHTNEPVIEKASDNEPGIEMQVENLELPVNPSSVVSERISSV
Description: Agonist activity at recombinant human 5-HT2C receptor transfected in CHOK1 cells assessed as calcium mobilization by FLIPR assay

[3] = physchem; conditions: octanol/water
Description: Lipophilicity, log D of the compound

[4] = in vitro; conditions: human, liver microsomes
Description: as §1

[5] = in vitro; conditions: dog, MDCK, permeability
Description: Permeability in RRCK cells

[6] = target: T1, 5-hydroxytryptamine receptor 2C; experiment: biochemical
Description: Displacement of [3H]-mesulergine from recombinant human 5-HT2C receptor transfected in Swiss mouse 3T3 cells after 150 mins by scintillation proximity assay

[7] = system: MDR1; experiment: in vitro; conditions: dog, MDCK-MDR1, Ratio
Description: Efflux ratio of permeability from basolateral to apical side over apical to basolateral side in MDCK cells expressing MDR1

[8] = target: 5-HT2B receptor (Homo sapiens, UniProt P41595); experiment: in vitro
Description: (§2) Agonist activity at recombinant human 5-HT2B receptor transfected in CHOK1 cells assessed as calcium mobilization at 10 uM by FLIPR assay

[9] = target: T2, 5-hydroxytryptamine receptor 2B (Homo sapiens, UniProt P41595); experiment: Agonist activity at recombinant human 5-HT2B receptor transfected in CHOK1 cells assessed as calcium mobilization by FLIPR assay; type: cell-based
[10] = target: T2, 5-hydroxytryptamine receptor 2B; conditions: 10 µM
Description: as §2

[11] = dog, mdckii-le
Description: Permeability in RRCK cells

5-HT2B receptor, sequence (P41595 whole entry): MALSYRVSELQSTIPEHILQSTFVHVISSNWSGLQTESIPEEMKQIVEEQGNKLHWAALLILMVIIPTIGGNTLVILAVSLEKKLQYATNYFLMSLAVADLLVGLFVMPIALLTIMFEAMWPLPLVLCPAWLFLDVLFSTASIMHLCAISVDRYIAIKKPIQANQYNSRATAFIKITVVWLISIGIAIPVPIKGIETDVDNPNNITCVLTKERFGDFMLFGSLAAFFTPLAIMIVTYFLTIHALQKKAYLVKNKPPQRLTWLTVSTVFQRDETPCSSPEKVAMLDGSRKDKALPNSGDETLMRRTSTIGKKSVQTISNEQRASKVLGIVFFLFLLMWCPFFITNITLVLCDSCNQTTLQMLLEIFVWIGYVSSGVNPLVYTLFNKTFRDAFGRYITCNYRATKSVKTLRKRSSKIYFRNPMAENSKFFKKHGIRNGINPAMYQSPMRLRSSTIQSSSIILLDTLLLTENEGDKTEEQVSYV
T2 sequence (P41595 whole entry): as above

Structure (SMILES)	CLH [1] [mL/min/mg]	EC50 [2] [nM]	logD [3]	microsomal CLint [4] [µL/min/mg]	Papp [5] [×10⁻⁶ cm/s]	Ki [6] [nM]	efflux ratio [7]	Emax at 10 µM [8] [%]	EC50 [9] [nM]	Emax [10] [%]	permeability [11] [×10⁻⁶ cm/s]
c1ccc(Cc2ncc3c(n2)CCNCC3)cc1	< 8	–	–	–	–	–	–	–	–	–	–
Fc1ccc(Cc2cc3c(nn2)CCNCC3)cc1	–	> 10000	0.2	< 7	14	450	1.2	64	–	–	–
COc1ccccc1Cc1cc2c(nn1)CCNCC2	–	> 10000	0.1	9	16	550	1.9	40	–	–	–
c1ccc(Cc2cc3c(nn2)CCNCC3)cc1	–	130	0	< 7	14	80	1	29	–	–	–
Clc1ccccc1Cc1cc2c(nn1)CCNCC2	–	310	0.7	< 7	15	200	1.1	41	800	–	–
c1ccc(Cc2nnc3n2CCNCC3)cc1	< 8	> 10000	-0.3	–	2	> 10000	1.3	0	–	–	–
Cc1c(Cc2ccccc2)nnc2c1CCNCC2	–	220	–	< 8	14	520	1.9	–	–	–	–
FC(F)(F)c1cccc(Cc2cc3c(nn2)CCNCC3)c1	–	750	0.9	< 7	13	250	1.7	57	450	–	–
O=c1[nH]c2c(nc1Cc1ccccc1)CCNCC2	< 8	70	-0.1	–	–	110	3	24	–	–	–
Clc1ccc(Cc2cc3c(nn2)CCNCC3)cc1	–	310	0.8	< 7	13	120	1.3	63	410	–	–
O=c1cc2c(nn1Cc1ccccc1)CCNCC2	< 7	30	0.3	–	13	10	1	48	–	–	–
c1ccc(Cn2cc3c(n2)CCNCC3)cc1	< 7	–	0.1	–	13	2700	1	3	–	–	–
O=c1[nH]n(Cc2ccccc2)c2c1CCNCC2	< 7	> 10000	-0.1	–	< 1	–	1.2	0	–	–	–
O=c1c2c([nH]n1Cc1ccccc1)CCNCC2	–	> 10000	-0.5	–	< 1	–	–	0	–	–	–
CC(c1ccccc1)c1cc2c(nn1)CCNCC2 (stereo in doubt; 15g)	–	190	0.4	< 8	13	200	1.8	36	–	–	–
CC(c1ccccc1)c1cc2c(nn1)CCNCC2 (stereo in doubt; 15h)	–	110	–	–	–	170	–	–	–	55	14
